# Measured values taken from US11224628B2, “Method for extraction of an agent from a plant source” (Yissum Research Development Company of the Hebrew …, priority 2017, dated 2022).
# Assay: Self-diffusion NMR (SD-NMR) diffusion coefficients of the components of the AX-loaded medium
# Assay type: physicochemical
# Details: 0.5 wt % AX-loaded medium
# Experimental: In order to determine the structure of the oil droplets (or micelles) of the medium, self-diffusion NMR analysis was carried out. SD-NMR is able to locate each component within the medium via measurements of its diffusion coefficient.
# NMR measurements were performed with a Bruker AVII 500 spectrometer equipped with GREAT 1/10 gradients, a 5 mm BBO and a 5 mm BBI probe, both with a z-gradient coil and with a maximum gradient strength of 0.509 and 0.544 Tm^−1, respectively. Diffusion was measured using an asymmetric bipolar longitudinal eddy-current delay (bpLED) experiment, or an asymmetric bipolar stimulated echo (known as one-shot) experiment with convection compensation and an asymmetry factor of 20%, ramping the strongest gradient from 2% to 95% of maximum strength in 32 steps. The spectrum was processed with the Bruker TOPSPIN software. NMR spectra were recorded at 25±0.2° C. The components were identified by their chemical shift in 1H NMR.
SMILES,Diffusion coefficient (water content 0 wt %),Diffusion coefficient (water content 10 wt %),Diffusion coefficient (water content 20 wt %),Diffusion coefficient (water content 30 wt %),Diffusion coefficient (water content 40 wt %),Diffusion coefficient (water content 50 wt %),Diffusion coefficient (water content 60 wt %),Diffusion coefficient (water content 70 wt %),Diffusion coefficient (water content 80 wt %),Diffusion coefficient (water content 90 wt %)
"CC1=C(/C=C/C(C)=C/C=C/C(C)=C/C=C/C=C(C)/C=C/C=C(C)/C=C/C2=C(C)C(=O)[C@@H](O)CC2(C)C)C(C)(C)C[C@H](O)C1=O [AX, astaxanthin]",4.7 × 10^−12 m^2/sec,3 × 10^−12 m^2/sec,1.4 × 10^−12 m^2/sec,3 × 10^−13 m^2/sec,3 × 10^−13 m^2/sec,7 × 10^−13 m^2/sec,1.4 × 10^−12 m^2/sec,4.8 × 10^−12 m^2/sec,1.12 × 10^−11 m^2/sec,
"CCO [EtOH, Ethanol]",4.13 × 10^−11 m^2/sec,4.66 × 10^−11 m^2/sec,4.78 × 10^−11 m^2/sec,8.67 × 10^−11 m^2/sec,1.2 × 10^−10 m^2/sec,1.7 × 10^−10 m^2/sec,2.33 × 10^−10 m^2/sec,3.32 × 10^−10 m^2/sec,4.67 × 10^−10 m^2/sec,5.89 × 10^−10 m^2/sec
"[2H]O[2H] [Formulation D2O, D2O]",,3.1 × 10^−11 m^2/sec,2.84 × 10^−11 m^2/sec,3.2 × 10^−12 m^2/sec,1.3 × 10^−12 m^2/sec,2.69 × 10^−11 m^2/sec,7.96 × 10^−10 m^2/sec,9.1 × 10^−10 m^2/sec,1.16 × 10^−9 m^2/sec,1.48 × 10^−09 m^2/sec
"CC(O)CO (stereo not shown) [PG, Propylene glycol]",4.43 × 10^−11 m^2/sec,4.78 × 10^−11 m^2/sec,4.86 × 10^−11 m^2/sec,8.69 × 10^−11 m^2/sec,1.23 × 10^−10 m^2/sec,1.75 × 10^−10 m^2/sec,2.41 × 10^−10 m^2/sec,3.35 × 10^−10 m^2/sec,4.67 × 10^−10 m^2/sec,6.03 × 10^−10 m^2/sec
"C=C(C)[C@H]1CC=C(C)CC1 [R-(+)-limonene, R-(+)-Limonene]",5.46 × 10^−11 m^2/sec,3.09 × 10^−11 m^2/sec,2.36 × 10^−11 m^2/sec,3.2 × 10^−12 m^2/sec,1.4 × 10^−12 m^2/sec,1.4 × 10^−12 m^2/sec,3.1 × 10^−12 m^2/sec,5.7 × 10^−12 m^2/sec,1.10 × 10^−11 m^2/sec,1.91 × 10^−11 m^2/sec
"CCCCCCCC/C=C\CCCCCCCC(=O)OCCOCC(OCCO)C1OCC(OCCO)C1OCCO (stereo not shown) [Tween 80, Polysorbate 80]",4.5 × 10^−12 m^2/sec,3.5 × 10^−12 m^2/sec,2.9 × 10^−12 m^2/sec,6 × 10^−13 m^2/sec,4 × 10^−13 m^2/sec,9 × 10^−13 m^2/sec,2.2 × 10^−12 m^2/sec,5.3 × 10^−12 m^2/sec,1.05 × 10^−11 m^2/sec,1.91 × 10^−11 m^2/sec
